Data published in patent EP1655287A1, “PROBE FOR DISEASES WITH AMYLOID ACCUMULATION, AMYLOID-STAINING AGENT, REMEDY AND PREVENTIVE FOR DISEASES WITH AMYLOID ACCUMULATION AND DIAGNOSTIC PROBE AND STAINING AGENT FOR NEUROFIBRILLARY CHANGE” (priority 2003, dated 2005).

Columns and labels:
Amyloid β-protein = assay: Screening of the degree of β-structure recognition (fluorescence, in the presence of Congo red); type: binding; conditions: test compound 5 µM, amyloid β-protein 5 µM, Congo red 0.1 µM, phosphate buffer pH 7.4
[1] = Blood-brain barrier permeability after intravenous administration; conditions: for Plasma: mice, content in plasma two minutes after intravenous administration; for tissue uptake at 2 min: mouse, brain, iv
Experimental: (B) Testing of blood-brain barrier permeability Measurements of blood-brain barrier permeability were made according to the following procedures. Compounds of the present invention were intravenously administered to mice to determine their in vivo blood-brain barrier permeability. • (1) Mice utilized Slc:ICR weighing 30-40 g (7 weeks old, n=3) (Nippon SLC). • (2) A test compound was dissolved in a mixture of 1N HCl, polyethylene glycol 400, and DMSO, or in DMSO or ethyl alcohol, and then diluted with purified water, and injected via tail vein. Two minutes after administration, the mice, under ether anesthesia, were subjected to taking blood from the abdominal aorta with a heparin-treated syringe and removing the brain. • (3) After taking blood, blood samples were centrifuged at 14,000 rpm at 4°C for 10 minutes, and their supernatants were kept at -80°C as plasma sample. The brain (including cerebellum) was kept at -80°C after its removal. • (4) The plasma sample, when used, was thawed, diluted with purified water, and then applied to a conditioned C18 solid-phase extraction cartridge (bond elute C18, 200 mg, Varian), followed by elution with methyl alcohol. Alternatively, after thawing the plasma sample, a diethyl ether/cyclohexane mixture was added, and the mixture was shaken, and then centrifuged to separate an oil layer. • (5) The brain material, when used, was subjected to measuring its wet weight with the brain remaining frozen, and saline was added to the brain for homogenization. The homogenate was centrifuged for 10 minutes, and the supernatant was applied to a conditioned C18 solid-phase extraction cartridge and eluted with methyl alcohol. Alternatively, after measuring the wet weight of the frozen brain, a diethyl ether/cyclohexane mixture was added to the brain, and the mixture was homogenized, shaken, and then centrifuged to separate an oil layer. • (6) The absorbance and fluorescence were detected employing high performance liquid chromatography. • (7) For each of the plasma and brain, the content of the test compound in the plasma or brain (%ID (injected dose)/ml or g) was determined, relative to the administered dose.

senile plaques = target: T1, senile plaques (Homo sapiens, UniProt P05067); assay: Staining of senile plaques and diffuse plaques in brain sections, compared with thioflavin S, BSB or anti-Aβ antibody 6F/3D immunostaining; type: binding, patient with Alzheimer's disease; conditions: 100 µM compound in 50% ethanol; for staining properties compared with immunostaining of anti-Aβ antibody 6F/3D: adjacent sections immunostained with 6F/3D; for staining properties in sections of the brain of a patient with Alzheimer's disease: compared with thioflavin S (and BSB) on adjacent sections
T1 construct: The former has, as the main component, amyloid β-protein (Aβ protein) taking β-sheet structures; from tissue; host or cells: paraffin-embedded temporal lobe or hippocampus sections of an Alzheimer's disease patient's brain (Fukushimura Hospital)
T1 sequence (P05067 672-713 limits assumed): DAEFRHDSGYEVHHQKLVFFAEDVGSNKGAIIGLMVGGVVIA
From the text: The following explanation is made about testing of staining properties of the compounds of the present invention on brain sections of an Alzheimer's disease patient. • (1) Temporal lobe or hippocampus specimens of the brain of a patient who had been definitely diagnosed pathologically as Alzheimer's disease and of a normal aged individual were used. These specimens were provided from Fukushimura Hospital, our joint research facility, with the consent to their use for research purpose received from the bereaved family of the patient (BF Research Laboratories Institutional Ethics Board Permission No. RS-99-02). • (2) The brain tissues embedded in paraffin were sliced 6 or 8 µm thick, extended on slides, and dried. The paraffin-embedded brain sections were deparaffined by washing sequentially with xylene (10 minutes, twice), 100% ethanol (15 minutes, twice), 95% ethanol (15 minutes, twice), and a stream of water (10 minutes). • (3) Pre-treatment for staining with compounds of the present invention involved treating the sections for eliminating self-fluorescence due to lipofuscin. First, the deparaffined sections were immersed into a 10% formalin solution for 60 minutes and washed with PBS for 5 minutes, followed by immersion into a 0.25% solution of KMnO4 for 90 minutes. After washing twice with PBS for 2 minutes each, the sections were immersed into a solution of 0.1% K2S2O5/oxalic acid for about 30 seconds each, and then washed three times with PBS for 2 minutes each. • (4) About 150 µl of a 100 µM solution of a compound of the present invention dissolved in 50% ethanol was added dropwise onto the sections and allowed the reaction to be carried out for 10 minutes. The sections were dipped into tap water five times, and then 50% ethanol three to five times, followed by immediate classification. After that, the sections were immersed into PBS for 60 minutes, enclosed with Fluor Save Reagent (Calbiochem), and examined under a fluorescent microscope (Nikon, Eclips E800). Pictures were taken using a digital camera (Plaroid PDMCII).
Immunostaining was carried out as follows. • (a) Procedures for immunostaining amyloid β-protein: • (1) After the sections were deparaffined, the sections were washed twice in distilled water for 2 minutes each, and tissues were marked with an Immunopen. About 150 µl of formic acid was added dropwise and allowed to stand at room temperature for 5 minutes. The sections were washed with tap water for 5 minutes and immersed into cold PBS-Tween 20 for 2 minutes, and then about 150 µl of a 0.05% trypsin solution was added dropwise and allowed the reaction to be carried out at 37°C for 15 minutes. • (2) In an ice bath, the sections were washed twice with cold PBS-Tween 20 for 5 minutes each, and two drops of blocking serum were added and allowed the reaction to be carried out at 37°C for 15 minutes. Excess water was removed, and about 150 µl of 6F/3D, an antibody specific to amyloid β-protein (DAKO; diluted 1:50) was added dropwise and allowed the reaction to be carried out at 37°C for 1 hour. • (3) Further, after washing five times with cold PBS-Tween 20 for 2 minutes each, two drops of a solution of goat antimouse IgG (H+L) conjugated to biotin were added and allowed the reaction to be carried out at 37°C for 1 hour. After that, the sections were washed three times with cold PBS-Tween 20 for 2 minutes each, and two drops of ABS solution (a streptavidin-biotin-peroxidase complex solution) were added and allowed to stand for 30 minutes. The sections were again washed three times with cold PBS-Tween 20 for 2 minutes each, and about 150 µl of DAB solution (prepared by dissolving 10 mg of DAB in 20 ml of 0.05 mol/l Tris-HCl buffer and adding 100 µl of 3% hydrogen peroxide immediately before use) were added and allowed the color to be developed sufficiently. Then, the sections were washed with distilled water for 1 minute to stop the reaction, enclosed, and examined under a microscope.

[2] = Acute toxicity testing, intravenous administration; type: in vivo; conditions: male Crj:CD1 mice, via tail vein, observed up to 7 days; for MTD at 168 h: mouse, in vivo, iv, read-out: Maximum Tolerated Dose (mg/kg, intravenous administration)
Experimental: The following explanation is made of testing methods for properties of the compounds of the present invention. (A) Testing of acute toxicity Acute toxicity of the inventive compounds was determined employing mice by intravenous administration. Male Crj:CD1 mice were used and divided into groups of 4 mice, with an average weight of each group of 31-32 g. […] Up to 7 days after administration, observations were made.

Molecule	Degree of β-structure recognition (%) (Amyloid β-protein)	staining properties in sections of the brain of a patient with Alzheimer's disease (senile plaques)	also measured
2-[2-(2-dimethylamino-1,3,4-thiazol-5-yl)ethenyl]benzoxazole [BF-237]	76.5	–	–
CNc1ccc(/C=C/C=C/c2nc3ccccc3o2)cc1 [BF-185, 2-[[4-(4-methylamino)phenyl]-1,3-butadienyl)benzoxazole]	82.7	mainly stains senile plaques	Plasma [1]: 1.0 %ID/g or ml; staining properties compared with immunostaining of anti-Aβ antibody 6F/3D (senile plaques): stains senile plaques (Fig. 3, wedge-shaped arrowheads) and diffuse plaques
CNc1ccc(/C=C/C=C/c2nc3ccccc3s2)cc1 [BF-187, 2-[[4-(4-methylamino)phenyl]-1,3-butadienyl)benzothiazole]	63.3	stains senile plaques	Plasma [1]: 1.3 %ID/g or ml
CNc1ccc(/C=C/C=C/c2nc3ccccc3[nH]2)cc1 [BF-188, 2-[[4-(4-methylamino)phenyl]-1,3-butadienyl]benzoimidazole]	68.9	stains senile plaques	Plasma [1]: 1.7 %ID/g or ml
CNc1ccc(/C=C/C=C/C=C/c2ccc3ccccc3n2)cc1 [BF-189, 1-(4-methylaminophenyl)-6-(2-quinolyl)-1,3,5-hexatrien]	79.8	stains senile plaques	MTD at 168 h [2]: ≥ 10 mg/kg
CN(C)c1ncc(/C=C/c2nc3ccccc3s2)s1 [BF-196, 2-[2-(2-dimethylaminothiazol-5-yl)ethenyl]benzothiazole]	53.5	mainly stains senile plaques	Plasma [1]: 1.8 %ID/g or ml; tissue uptake at 2 min [1]: 19 %ID/g; staining properties compared with immunostaining of anti-Aβ antibody 6F/3D (senile plaques): stains senile plaques
Nc1ccc(/C=C/C=C/c2nc3ccc(O)cc3o2)c(O)c1 [BF-201]	82.0	stains senile plaques	staining properties compared with immunostaining of anti-Aβ antibody 6F/3D (senile plaques): stains senile plaques
CN(C)c1ncc(-c2ccc3ccccc3n2)o1 [BF-221, 2-(2-dimethylaminooxazol-5-yl)quinoline]	73.8	–	–
CN(C)c1ncc(/C=C/c2ccc3ccccc3n2)s1 [BF-222, 2-[2-(2-dimethylaminothiazol-5-yl)ethenyl]quinoline]	62.3	–	Plasma [1]: 2.0 %ID/g or ml; tissue uptake at 2 min [1]: 13 %ID/g; MTD at 168 h [2]: ≥ 10 mg/kg
CN(C)c1ncc(-c2nc3ccccc3o2)s1 [BF-225, 2-(2-dimethylaminothiazol-5-yl)benzoxazole]	87.5	–	–
Cc1ccc(S(=O)(=O)OCCOc2ccc3nc(/C=C/c4cnc(N(C)C)s4)oc3c2)cc1 [BF-226, 2-[2-(2-dimethylaminothiazol-5-yl)ethenyl]-6-[2-(4-tosyloxy)ethoxy]benzoxazole]	43.3	–	–
Cc1nc(/C=C/C=C/c2ccc(N(C)C)cc2)oc1C [BF-228, 2-[4-(4-dimethylaminophenyl)-1,3-butadienyl]-4,5-dimethyloxazole]	83.8	–	MTD at 168 h [2]: ≥ 10 mg/kg
Cc1nc(/C=C/C=C/c2cnc(N(C)C)o2)oc1C [BF-229, 2-[4-(2-dimethylaminooxazol-5-yl)-1,3-butadienyl]-4,5-dimethyloxazole]	70.7	–	–
CN(C)c1ncc(/C=C/c2nc3ccccc3o2)o1 [BF-230, 2-[2-(2-dimethylaminooxazol-5-yl)ethenyl]benzoxazole]	74.0	–	MTD at 168 h [2]: ≥ 10 mg/kg
CN(C)c1ncc(/C=C/C=C/c2nc3ccccc3[nH]2)s1 [BF-231, 2-[4-(2-dimethylaminothiazol-5-yl)-1,3-butadienyl]benzoimidazole]	47.2	stains senile plaques	Maximum Tolerated Dose (mg/kg, intravenous administration) [2]: ≧ 10 mg/kg
CNc1ncc(/C=C/c2ccc(O)cc2)s1 [BF-235, 5-(4-hydroxystyryl)-2-methylaminothiazole]	65.5	–	–
CN(C)c1nnc(/C=C/c2nc3ccccc3o2)o1 [BF-238, 2-[2-(2-dimethylamino-1,3,4-oxazol-5-yl)ethenyl]benzoxazole]	52.3	–	–
Nc1ncc(-c2ccc3ccccc3n2)s1 [BF-240, 2-(2-aminothiazol-5-yl)quinoline]	49.9	–	–
CCC[CH2][Sn]([CH2]CCC)([CH2]CCC)[c]1ccc2nc(C=Cc3cnc(N(C)C)s3)oc2c1 [BF-246, 6-tri(n-butyl)stannyl-2-[2-(2-dimethylaminothiazol-5-yl)ethenyl]benzoxazole]	24.6	–	–
CN(C)c1ncc(/C=C/c2nc3ccc(I)cc3o2)s1 [BF-247, 6-(iodo)-2-[2-(2-dimethylaminothiazol-5-yl)ethenyl]benzoxazole]	43.7	–	–
CN(C)c1ncc(/C=C/c2nc3ccccc3[nH]2)s1 [BF-248, 2-[2-(2-dimethylaminothiazol-5-yl)ethenyl]benzimidazole]	40.1	–	–
CN(C)c1cnc(/C=C/c2nc3ccccc3s2)o1 [BF-250, 2-[2-(5-dimethylaminooxazol-2-yl)ethenyl]benzothiazole]	43.1	–	–
Cc1ccc(S(=O)(=O)OCCOc2ccc3nc(/C=C/c4cnc(N(C)C)s4)sc3c2)cc1 [BF-251, 2-[2-(2-dimethylaminothiazol-5-yl)ethenyl]-6-[2-(4-tosyloxy)ethoxy]benzothiazole]	37.5	–	–
CN(C)c1ncc(/C=C/c2nc3ccc(OCCF)cc3s2)s1 [BF-252, 2-[2-(2-dimethylaminothiazol-5-yl)ethenyl]-6-[2-(fluoro)ethoxy]benzothiazole]	47.0	–	–
Nc1cnc(-c2ccc3ccccc3n2)o1 [BF-255, 2-(5-アミノオキサゾール-2-イル)キノリン]	65.8	–	–
O=C(O)c1cc(/C=C/c2ccc(/C=C/c3ccc(O)c(C(=O)O)c3)c(Br)c2)ccc1O [BSB, (trans, trans)-1-bromo-2,5-bis-(3-hydroxycarbonyl-4-hydroxy)styrylbenzen, reference compound]	–	stains both senile plaques and neurofibrillary tangles	–
Cc1ccc2c(c1)sc(-c1ccc(N(C)C)cc1)[n+]2C [Thioflavin T, reference compound]	61.8	–	–
thioflavin S [reference compound]	–	stains both senile plaques and neurofibrillary tangles	–
